Experimental data reported in PubChem BioAssay AID328 (DTP/NCI, 2004).
Where “and” joins values, the source holds several entries; their conditions need not be identical. Identical values can stand only once. Inconclusive results and toxic doses are left out. Residues, ends and D or L forms follow the SMILES beside them.

Tested on: BDF1 mice, P388 leukemia ip, median survival T/C
Test: NCI In Vivo Anticancer Drug Screen. Data for tumor model P388 Leukemia (intraperitoneal) in B6D2F1 (BDF1) mice
Conditions: endpoint: median survival time, higher = longer survival
How it was run: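 Survival ratio, drug arm over vehicle arm, in mice with a transplanted tumour.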

[1] = dose: 100.0 mg/kg/injection, schedule: Q01DX009 (ip), vehicle: saline with Tween-80
[2] = dose: 100.0 mg/kg/injection, schedule: Q04DX003 (ip), vehicle: saline with Tween-80
[3] = dose: 200.0 mg/kg/injection, schedule: Q01DX009 (ip), vehicle: saline with Tween-80
[4] = dose: 200.0 mg/kg/injection, schedule: Q04DX003 (ip), vehicle: saline with Tween-80
[5] = dose: 400.0 mg/kg/injection, schedule: Q01DX009 (ip), vehicle: saline with Tween-80
[6] = dose: 400.0 mg/kg/injection, schedule: Q04DX003 (ip), vehicle: saline with Tween-80
[7] = dose: 50.0 mg/kg/injection, schedule: Q01DX005 (ip), vehicle: saline with Tween-80
[8] = dose: 100.0 mg/kg/injection, schedule: Q01DX005 (ip), vehicle: saline with Tween-80
[9] = dose: 200.0 mg/kg/injection, schedule: Q01DX005 (ip), vehicle: saline with Tween-80
[10] = dose: 50.0 mg/kg/injection, schedule: Q04DX003 (ip), vehicle: saline
[11] = dose: 100.0 mg/kg/injection, schedule: Q04DX003 (ip), vehicle: saline
[12] = dose: 200.0 mg/kg/injection, schedule: Q04DX003 (ip), vehicle: saline
[13] = dose: 25.0 mg/kg/injection, schedule: Q04DX003 (ip), vehicle: saline
[14] = dose: 100.0 mg/kg/injection, schedule: Q01DX009 (ip), vehicle: saline sonified
[15] = dose: 12.5 mg/kg/injection, schedule: Q01DX009 (ip), vehicle: saline
[16] = dose: 25.0 mg/kg/injection, schedule: Q01DX009 (ip), vehicle: saline
[17] = dose: 50.0 mg/kg/injection, schedule: Q01DX009 (ip), vehicle: Klucel (hydroxypropylcellulose) (HPC)

For `COc1cc(NC(=O)CN(CCCl)CCCl)cc(OC)c1OC`, the T/C (dose: 7.7 mg/kg/injection, schedule: Q04DX003 (ip), vehicle: Klucel (hydroxypropylcellulose) (HPC)) was 107 % of control, the T/C (dose: 30.0 mg/kg/injection, schedule: Q04DX003 (ip), vehicle: Klucel (hydroxypropylcellulose) (HPC)) was 122 % of control and the T/C (dose: 60.0 mg/kg/injection, schedule: Q04DX003 (ip), vehicle: Klucel (hydroxypropylcellulose) (HPC)) was 104 % of control and 114 % of control. The T/C (dose: 90.0 mg/kg/injection, schedule: Q04DX003 (ip), vehicle: Klucel (hydroxypropylcellulose) (HPC)) was 177 % of control, the T/C (dose: 200.0 mg/kg/injection, schedule: Q04DX003 (ip), vehicle: Klucel (hydroxypropylcellulose) (HPC)) was 209 % of control and the T/C (dose: 300.0 mg/kg/injection, schedule: Q04DX003 (ip), vehicle: Klucel (hydroxypropylcellulose) (HPC)) was 122 % of control.
In the case of `CC(C)=CCC/C(C)=C/COC(=O)Cc1ccccc1`, the T/C [1] was 104 % of control, the T/C [2] was 100 % of control and the T/C [3] was 109 % of control. The T/C [4] was 105 % of control, the T/C [5] was 118 % of control and the T/C [6] was 122 % of control.
With `Cc1c(C)c([N+](=O)[O-])c(Br)c(C)c1[N+](=O)[O-]` the T/C [1] was 95 % of control, the T/C [2] was 104 % of control and the T/C (dose: 132.0 mg/kg/injection, schedule: Q04DX003 (ip), vehicle: saline with Tween-80) was 109 % of control. The T/C [3] was 90 % of control, the T/C [4] was 118 % of control and the T/C (dose: 300.0 mg/kg/injection, schedule: Q04DX003 (ip), vehicle: saline with Tween-80) was 100 % of control. For the same compound, the T/C [5] was 95 % of control and the T/C [6] was 122 % of control.
In the case of `CC(=O)C(C(C)=O)C(Cl)C(C(C)=O)C(C)=O`, the T/C [7] was 99 % of control, the T/C [8] was 92 % of control and the T/C [9] was 99 % of control.
`CC12C=CC(=O)C=C1CCC1C3CCC(O)(C(=O)CO)C3(C)CC(O)C12F` (stereo not given) was tested, and the T/C (dose: 25.0 mg/kg/injection, schedule: Q04DX003 (sc), vehicle: steriod suspending solution) was 113 % of control, the T/C (dose: 50.0 mg/kg/injection, schedule: Q04DX003 (sc), vehicle: steriod suspending solution) was 86 % of control and the T/C (dose: 56.25 mg/kg/injection, schedule: Q01DX009 (sc), vehicle: steriod suspending solution) was 100 % of control. The T/C (dose: 100.0 mg/kg/injection, schedule: Q04DX003 (sc), vehicle: steriod suspending solution) was 86 % of control, the T/C (dose: 112.5 mg/kg/injection, schedule: Q01DX009 (sc), vehicle: steriod suspending solution) was 118 % of control and the T/C (dose: 150.0 mg/kg/injection, schedule: Q04DX003 (sc), vehicle: steriod suspending solution) was 104 % of control. The T/C (dose: 225.0 mg/kg/injection, schedule: Q01DX009 (sc), vehicle: steriod suspending solution) was 104 % of control and the T/C (dose: 225.0 mg/kg/injection, schedule: Q04DX003 (sc), vehicle: steriod suspending solution) was 90 % of control.
With `CC(C)(S(=O)(=O)Oc1ccccc1)S(=O)(=O)Oc1ccccc1` the T/C [2] was 93 % of control, the T/C [4] was 87 % of control and the T/C [6] was 92 % of control.
For `NC(N)=N/N=C/c1cccc2ccccc12`, the T/C (dose: 6.25 mg/kg/injection, schedule: Q01DX009 (ip), vehicle: saline with Tween-80) was 100 % of control, the T/C (dose: 12.5 mg/kg/injection, schedule: Q01DX009 (ip), vehicle: saline with Tween-80) was 108 % of control and the T/C (dose: 25.0 mg/kg/injection, schedule: Q01DX009 (ip), vehicle: saline with Tween-80) was 108 % of control.
`CC(=O)NC(Cc1ccccc1)C(=O)NC(CCCN=C(N)N)C(=O)O` (stereo not drawn) (Ac-Phe-Arg-OH; configuration not given here) was tested, and the T/C (dose: 50.0 mg/kg/injection, schedule: Q01DX005 (ip), vehicle: saline) was 108 % of control, the T/C (dose: 100.0 mg/kg/injection, schedule: Q01DX005 (ip), vehicle: saline) was 115 % of control and the T/C (dose: 200.0 mg/kg/injection, schedule: Q01DX005 (ip), vehicle: saline) was 105 % of control.
In the case of `COC(OC)C12CC(OC(=O)N1)C(C)CO2` (stereo not given), the T/C [10] was 98 % of control, the T/C [11] was 106 % of control and the T/C [12] was 96 % of control.
For `CC(OC(=O)Nc1ccccc1)C(=O)O` (stereo not given), the T/C [1] was 88 % of control, the T/C [3] was 92 % of control and the T/C [5] was 103 % of control.
With `Nc1nc(=O)n(C2OC(CO)C(O)C2O)c2scnc12` (stereo not given) the T/C [13] was 108 % of control, the T/C [10] was 118 % of control and the T/C [11] was 118 % of control. For the same compound, the T/C [12] was 108 % of control.
`C[n+]1ccc(/C=N/O)cc1` was tested, and the T/C [13] was 105 % of control, the T/C [10] was 103 % of control and the T/C [11] was 98 % of control. The T/C [12] was 89 % of control and 100 % of control and the T/C (dose: 400.0 mg/kg/injection, schedule: Q04DX003 (ip), vehicle: saline) was 86 % of control.
`c1ccc2sc(SNC3CCCCC3)nc2c1` was tested, and the T/C (dose: 200.0 mg/kg/injection, schedule: Q04DX002 (ip), vehicle: saline) was 103 % of control and the T/C (dose: 400.0 mg/kg/injection, schedule: Q04DX002 (ip), vehicle: saline) was 122 % of control.
For `COc1ccc2c(c1)CCC1CC(=O)C=C21` (stereo not given), the T/C (dose: 100.0 mg/kg/injection, schedule: Q01DX001 (ip), vehicle: saline) was 105 % of control, the T/C (dose: 200.0 mg/kg/injection, schedule: Q01DX001 (ip), vehicle: saline) was 90 % of control and the T/C (dose: 400.0 mg/kg/injection, schedule: Q01DX001 (ip), vehicle: saline) was 100 % of control.
For `COC1C(CNC23CC4CC(CC(C4)C2)C3)OC2OC(C)(C)OC21` (stereo not given), the T/C (dose: 25.0 mg/kg/injection, schedule: Q01DX005 (ip), vehicle: saline with Tween-80) was 101 % of control, the T/C [7] was 100 % of control and 113 % of control and the T/C [8] was 99 % of control and 121 % of control. For the same compound, the T/C [9] was 105 % of control and 115 % of control.
In the case of `CC(=O)Nc1nncs1`, the T/C [14] was 113 % of control and the T/C (dose: 200.0 mg/kg/injection, schedule: Q01DX009 (ip), vehicle: saline sonified) was 109 % of control.
With `c1ccc2c(c1)CC1CCCCN1C2` (stereo not given) the T/C (dose: 12.5 mg/kg/injection, schedule: Q01DX009 (ip), vehicle: Klucel (hydroxypropylcellulose) (HPC)) was 100 % of control, the T/C [15] was 100 % of control and the T/C (dose: 25.0 mg/kg/injection, schedule: Q01DX009 (ip), vehicle: Klucel (hydroxypropylcellulose) (HPC)) was 105 % of control. For the same compound, the T/C [16] was 90 % of control, the T/C (dose: 37.5 mg/kg/injection, schedule: Q04DX003 (ip), vehicle: saline) was 95 % of control and the T/C [17] was 100 % of control. The T/C (dose: 50.0 mg/kg/injection, schedule: Q01DX009 (ip), vehicle: saline) was 110 % of control and the T/C (dose: 75.0 mg/kg/injection, schedule: Q04DX003 (ip), vehicle: saline) was 86 % of control.
In the case of `COc1cc(C=Nc2cccc(Br)c2)ccc1N(CCCl)CCCl`, the T/C (dose: 5.5 mg/kg/injection, schedule: Q04DX003 (ip), vehicle: saline with Tween-80) was 159 % of control, the T/C (dose: 8.3 mg/kg/injection, schedule: Q04DX003 (ip), vehicle: saline with Tween-80) was 177 % of control and the T/C (dose: 12.5 mg/kg/injection, schedule: Q04DX003 (ip), vehicle: saline with Tween-80) was 190 % of control. The T/C (dose: 25.0 mg/kg/injection, schedule: Q04DX003 (ip), vehicle: other) was 250 % of control and the T/C [14] was 90 % of control.
For `C#CC[N+]1=CN(c2ccc(C)cc2)Cc2cc(C)ccc21`, the T/C (dose: 25.0 mg/kg/injection, schedule: Q04DX003 (ip), vehicle: Klucel (hydroxypropylcellulose) (HPC)) was 105 % of control, the T/C [17] was 122 % of control and the T/C (dose: 50.0 mg/kg/injection, schedule: Q04DX003 (ip), vehicle: Klucel (hydroxypropylcellulose) (HPC)) was 100 % of control. For the same compound, the T/C (dose: 100.0 mg/kg/injection, schedule: Q01DX009 (ip), vehicle: Klucel (hydroxypropylcellulose) (HPC)) was 122 % of control, the T/C (dose: 100.0 mg/kg/injection, schedule: Q04DX003 (ip), vehicle: Klucel (hydroxypropylcellulose) (HPC)) was 95 % of control and 100 % of control and 109 % of control and the T/C (dose: 150.0 mg/kg/injection, schedule: Q04DX003 (ip), vehicle: Klucel (hydroxypropylcellulose) (HPC)) was 100 % of control and 110 % of control. The T/C (dose: 225.0 mg/kg/injection, schedule: Q04DX003 (ip), vehicle: Klucel (hydroxypropylcellulose) (HPC)) was 110 % of control.
`CC(=O)[O][Hg][c]1c(C)c(C)cc(C)c1C` was tested, and the T/C [15] was 108 % of control and the T/C [16] was 121 % of control.
`O=c1c(Cl)c2cc3c(cc2c2ccccc12)nc1ccccc1n3-c1ccccc1` was tested, and the T/C (dose: 12.5 mg/kg/injection, schedule: Q01DX001 (ip), vehicle: saline with Tween-80) was 88 % of control and the T/C (dose: 25.0 mg/kg/injection, schedule: Q01DX001 (ip), vehicle: saline with Tween-80) was 88 % of control.
